In paper PMC8461356 (Heliyon, 2021):
Read-outs that look alike come from different tables or passages of the source.

How the values were obtained:
[1] = in vivo studies; cited from earlier work
[2] = type: cell-based, Human; settings: human, HEK-293 cells, relative cell viability, 4 °C/No UV = 100 %
HEK-293 cells = type: cell-based, Human; settings: for toxicity enhanced: co-treatment with UV 365 nm and 40 °C; for more cell death after exposing herbicide to 40 °C for 2 h: herbicide at LD50, no UV, compared with 4 °C and RT groups, 24-h cell exposure; for change in cell viability: 2 h of 40 °C/UV 254 nm; for increased toxicity: vs no UV
[3] = outdoor aquatic mesocosms, at 25 ng mL^−1; cited from earlier work
[4] = cited from earlier work
isolated rat hepatocytes = settings: rats and dogs, 100–200 μmole L-1 for 2–4 h; cited from earlier work

SMILES	LD50 (NIH TOXNET) [1] [mg/kg]	viability at 24 h ([2]; 40 °C/No UV 2 h) [%]	viability at 24 h ([2]; 40 °C/UV 254 nm 2 h) [%]	viability at 24 h ([2]; 40 °C/UV 365 nm 2 h) [%]	toxicity enhanced (HEK-293 cells) [%]	more cell death after exposing herbicide to 40 °C for 2 h (HEK-293 cells)	change in cell viability (HEK-293 cells)	half-life [3] [days]	further results
CC(C)Nc1nc(Cl)nc(NC(C)C)n1 [Propazine, propazine]	> 5000								
CCOCN(C(=O)CCl)c1c(C)cccc1CC [Acetochlor, acetochlor]		56.6	163	45.1	55	about 45%			
CCNc1nc(Cl)nc(NCC)n1 [Simazine, simazine]	> 5000								
CCc1cccc(CC)c1N(COC)C(=O)CCl [Alachlor, alachlor]		54.1	87.9	19.2	80	about 45%	no further changes	19.8	increased toxicity (HEK-293 cells; herbicide exposed to UV 254 nm 2 h at 4 °C): 40%; increased toxicity (HEK-293 cells; herbicide exposed to UV 365 nm 2 h at 4 °C): 24%
CCNc1nc(Cl)nc(NC(C)C)n1 [Atrazine, atrazine]									half-life ([4]; aerobic condition): about 150 days; half-life ([4]; anaerobic condition): more than 2 years; half-life ([4]; in soil): up to 6 months
CCc1cccc(C)c1N(C(=O)CCl)C(C)COC (stereo not shown) [Metolachlor, metolachlor]							no further changes	33.8	hepatotoxicity (isolated rat hepatocytes): not; differences in cell viability responses between 4 °C, 23 °C and 40 °C groups (HEK-293 cells; UV 254 nm and UV 365 nm for 2 h): no differences; temperature effect on herbicide-triggered cytotoxicity (HEK-293 cells; herbicide at LD50 kept 2 h at 4, 23 or 40 °C, no UV, 4 °C group as control): no further effect; UV effect on cytotoxicity (HEK-293 cells; no UV, UV 254 nm and UV 365 nm groups, 2 h at 4 °C): no further change
